From patent publication US20200390718A1, “METHODS AND COMPOSITIONS FOR […]-VIRAL TRANSFER VECTOR IMMUNE RESPONSE” (Selecta Biosciences, Inc., priority 2019, published 2020)

Tested on: AAV8-SEAP
Assay: Serum SEAP expression after AAV8-SEAP injections
Format: in vivo, C57BL/6 female mice
Settings: after the second boost at d140 (FIG. 2A) or d147 (FIG. 2B); AAV8-SEAP 1×10^10 VG
Description: Three groups of C57BL/6 female mice (6 mice each) were injected (r.o.) on days 0 and 56 with 1×10^10 VG of AAV8-SEAP without any nanoparticles (one group) or with ImmTOR™ at 100 μg of rapamycin (synthetic nanocarriers comprising rapamycin, such as those produced in Example 1; two groups). Of the […] two groups, one group was left untreated and one was additionally treated with systemic dexamethasone (i.p., 200 μg in 100 μL per injection) on injection days 0 and 56.
At time indicated in FIGS. 1A and 1B (days 14, 35, 49, 63 and 71 or days 13, 19, 33, 48, 62 and 69), mice were bled, serum separated from whole blood, and stored at −20±5° C. until analysis. SEAP levels in serum were measured using an assay kit from ThermoFisher Scientific (Waltham, Mass., USA). Briefly, sera samples and positive controls were diluted in dilution buffer, incubated at 65° C. for 30 min, then cooled to room temperature, and plated into a 96-well format. Then, assay buffer (5 min) and substrate (20 min) were added and the plates were read on a luminometer (477 nm).
This has warranted a series of further studies in which four groups of C57BL/6 female mice (6 mice each) were injected (r.o.) on days 0, 56 and 140 or 147 with 1×10^10 VG of AAV8-SEAP without any nanoparticles (two groups) or with ImmTOR™ at 100 μg of rapamycin (synthetic nanocarriers comprising rapamycin; two groups). […]

**Q.** For `C[C@@H]1C[C@H]2[C@@H]3CCC4=CC(=O)C=C[C@]4(C)[C@@]3(F)[C@@H](O)C[C@]2(C)[C@@]1(O)C(=O)CO` [dexamethasone, 9α-fluoro-11β,17α,21-trihydroxy-16α-methylpregna-1,4-diene-3,20-dione], which “benefit in SEAP expression vs. untreated” value is on record?
**A.** 10-80%
